In ChEMBL document CHEMBL1201862, “PubChem BioAssay data set” (2004):
Activity calls are given as the source filed them.

How the values were obtained:
[1] = molecular target: T1, Streptokinase A (Streptococcus pyogenes serotype M1, UniProt P10520); assay: S. pyogenes streptokinase expression inhibitors, potency, dose response, plasminogen activation absorbance, OD405 (AID 1914); assay type: functional, Streptococcus pyogenes M1 GAS;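 note: secreted streptokinase activity via plasminogen activation per viability signal from cell pellet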
T1 sequence (P10520 whole entry): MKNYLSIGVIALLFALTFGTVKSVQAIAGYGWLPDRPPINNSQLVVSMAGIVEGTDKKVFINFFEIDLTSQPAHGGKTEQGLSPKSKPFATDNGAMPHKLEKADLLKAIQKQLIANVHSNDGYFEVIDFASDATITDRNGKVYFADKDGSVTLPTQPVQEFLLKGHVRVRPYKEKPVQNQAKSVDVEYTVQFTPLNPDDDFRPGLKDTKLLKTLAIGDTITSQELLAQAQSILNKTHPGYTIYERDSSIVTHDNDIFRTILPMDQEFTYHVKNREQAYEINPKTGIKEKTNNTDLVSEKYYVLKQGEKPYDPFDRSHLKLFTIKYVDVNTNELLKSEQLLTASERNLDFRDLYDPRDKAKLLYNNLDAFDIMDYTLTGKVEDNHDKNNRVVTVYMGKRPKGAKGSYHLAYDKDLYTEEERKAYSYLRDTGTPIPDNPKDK

[2] = system: Streptococcus; assay: Group A Streptococcus viability loss, dose response, counter-screen for streptokinase expression inhibitor project, luminescence, BacTiterGlo (AID 1915); assay type: functional, organism-based;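 note: potency for reduction of bacterial viability or growth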
[3] = molecular target: T2, Protein RecA (Mycobacterium tuberculosis, UniProt P9WHJ3); assay: Fluorescence Cell-Free Homogeneous Dose Retest to Identify Inhibitors of RecA-Intein Splicing Activity. [Related pubchem assays (depositor defined):AID2097, AID2223, AID489010, AID492950]; assay type: functional
T2 sequence (P9WHJ3 whole entry): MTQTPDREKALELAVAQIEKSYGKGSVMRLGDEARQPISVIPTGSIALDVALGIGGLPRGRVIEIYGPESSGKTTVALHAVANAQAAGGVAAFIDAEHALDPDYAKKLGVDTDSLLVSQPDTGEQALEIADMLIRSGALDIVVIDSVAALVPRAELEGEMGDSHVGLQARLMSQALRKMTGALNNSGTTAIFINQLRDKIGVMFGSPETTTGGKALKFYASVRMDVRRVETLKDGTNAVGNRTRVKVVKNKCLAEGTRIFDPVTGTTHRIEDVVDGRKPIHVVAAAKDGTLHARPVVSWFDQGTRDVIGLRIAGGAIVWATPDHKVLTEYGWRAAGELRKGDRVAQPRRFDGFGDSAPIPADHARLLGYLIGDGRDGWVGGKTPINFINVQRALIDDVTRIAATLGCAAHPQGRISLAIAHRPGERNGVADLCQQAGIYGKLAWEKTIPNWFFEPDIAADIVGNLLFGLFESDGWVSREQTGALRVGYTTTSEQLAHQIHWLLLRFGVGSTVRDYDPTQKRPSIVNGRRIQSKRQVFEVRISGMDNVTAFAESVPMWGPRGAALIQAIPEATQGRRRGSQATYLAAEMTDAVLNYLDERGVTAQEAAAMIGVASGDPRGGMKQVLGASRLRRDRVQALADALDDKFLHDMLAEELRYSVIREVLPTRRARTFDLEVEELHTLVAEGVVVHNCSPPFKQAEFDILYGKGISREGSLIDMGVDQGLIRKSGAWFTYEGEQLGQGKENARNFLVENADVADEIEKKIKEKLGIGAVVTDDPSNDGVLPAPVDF

[4] = molecular target: T3, Caspase-3 (Homo sapiens, UniProt P42574); assay type: functional;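 note: Dose-response selectivity test against caspase-3 for candidate inhibitors of sentrin-specific proteases (SENPs)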
T3 sequence (P42574 whole entry): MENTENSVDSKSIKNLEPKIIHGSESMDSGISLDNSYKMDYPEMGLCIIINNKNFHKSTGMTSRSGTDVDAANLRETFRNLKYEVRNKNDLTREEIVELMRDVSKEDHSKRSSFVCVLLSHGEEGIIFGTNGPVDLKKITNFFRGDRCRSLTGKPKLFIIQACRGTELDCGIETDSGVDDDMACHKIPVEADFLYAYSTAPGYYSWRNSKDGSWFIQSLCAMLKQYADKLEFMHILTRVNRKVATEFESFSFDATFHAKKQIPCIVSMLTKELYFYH

[5] = molecular target: T4, Sentrin-specific protease 7 (Homo sapiens, UniProt Q9BQF6); assay type: functional;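 note: Luminescence-based dose-response confirmation of ultra-high-throughput screening hits, measuring inhibition of SENP7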
T4 sequence (Q9BQF6 whole entry): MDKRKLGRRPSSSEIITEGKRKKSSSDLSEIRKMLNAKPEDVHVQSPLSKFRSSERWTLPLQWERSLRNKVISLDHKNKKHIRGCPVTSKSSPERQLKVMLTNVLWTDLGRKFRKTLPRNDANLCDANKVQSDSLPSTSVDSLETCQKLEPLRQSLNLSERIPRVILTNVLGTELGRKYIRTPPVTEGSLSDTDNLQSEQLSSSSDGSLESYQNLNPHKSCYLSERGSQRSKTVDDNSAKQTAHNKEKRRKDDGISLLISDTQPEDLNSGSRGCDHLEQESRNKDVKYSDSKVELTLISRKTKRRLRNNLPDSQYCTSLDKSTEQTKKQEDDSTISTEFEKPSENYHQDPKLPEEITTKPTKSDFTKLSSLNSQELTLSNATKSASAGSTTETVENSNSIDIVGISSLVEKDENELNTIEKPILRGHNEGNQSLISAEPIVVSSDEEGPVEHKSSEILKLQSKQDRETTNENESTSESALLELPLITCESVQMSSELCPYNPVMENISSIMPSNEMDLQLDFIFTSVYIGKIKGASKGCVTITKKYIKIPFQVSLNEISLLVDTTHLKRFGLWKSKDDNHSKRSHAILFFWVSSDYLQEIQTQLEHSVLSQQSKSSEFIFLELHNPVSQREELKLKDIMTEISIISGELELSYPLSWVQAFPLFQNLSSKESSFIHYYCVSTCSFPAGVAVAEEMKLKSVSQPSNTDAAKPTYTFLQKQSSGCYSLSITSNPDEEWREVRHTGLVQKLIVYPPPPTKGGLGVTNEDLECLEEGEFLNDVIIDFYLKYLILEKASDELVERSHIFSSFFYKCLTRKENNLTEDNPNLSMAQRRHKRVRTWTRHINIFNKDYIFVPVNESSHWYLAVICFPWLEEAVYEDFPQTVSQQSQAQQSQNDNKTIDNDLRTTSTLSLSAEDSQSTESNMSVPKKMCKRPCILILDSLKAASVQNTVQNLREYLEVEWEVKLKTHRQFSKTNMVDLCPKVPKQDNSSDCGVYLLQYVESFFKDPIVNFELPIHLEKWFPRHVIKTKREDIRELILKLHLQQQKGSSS

[6] = molecular target: T5, Sentrin-specific protease 8 (Homo sapiens, UniProt Q96LD8); assay type: functional;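 note: luminescence read-out of SENP8 inhibition, dose-response confirmation following an ultra-high-throughput screen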
T5 sequence (Q96LD8 whole entry): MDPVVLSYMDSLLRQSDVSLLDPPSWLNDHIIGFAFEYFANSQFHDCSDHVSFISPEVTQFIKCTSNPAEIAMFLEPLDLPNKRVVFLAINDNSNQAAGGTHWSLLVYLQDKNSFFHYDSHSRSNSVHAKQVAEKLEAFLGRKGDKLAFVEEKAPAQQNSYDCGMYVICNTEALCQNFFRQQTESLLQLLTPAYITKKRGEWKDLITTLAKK

Row | SMILES | EC50 [1] | EC50 [2] | EC50 [3] | IC50 [4] | IC50 [5] | IC50 [6]
1 | CCC1CCCCN1S(=O)(=O)c1ccc(NC(=O)c2nc(S(C)(=O)=O)ncc2Cl)cc1 (configuration not stated) | 0.66 µM (active) | 13.2 µM (active) | 1.11 µM (active) | – | – | –
2 | CCCC[n+]1ccn(C2=C([N-]S(=O)(=O)c3ccc(Cl)cc3)C(=O)c3ccccc3C2=O)c1 | – | – | – | 55.7 µM (active) | 22 µM (active) | 38.2 µM (active)
3 | CC(=O)c1cccc2c1N=C(c1[nH]c3ccccc3c1O)C2=O | 116 µM (active) | > 150 µM (not active) | 2.76 µM (active) | 11.1 µM (active) | 15.7 µM (active) | 12.3 µM (active)
